The text below walks through data of article PMC9616048, “Thermal proteome profiling reveals Haemonchus orphan protein HCO_011565 as a target of the nematocidal small molecule UMW-868” (Frontiers in Pharmacology, 2022).

The test system of series [1] is eggs of H. contortus. Nature of the series: Egg hatch assay. In kind it is cell-based. The settings on record: Haemonchus contortus, 48 h; read-out: Egg hatch inhibition (IC50 in µM). As for the experimental part:
Compounds were also assessed for their effect on the hatching of eggs of H. contortus in vitro. To do this, eggs were isolated from the faeces from sheep with patent (30 day-) H. contortus infection by sucrose flotation ([Mes et al., 2007]). Eggs were suspended in H2O at a concentration of one egg per µl. The eggs were dispensed into wells (in triplicate; 100 eggs per well) and incubated with two-fold serial dilutions (9 points from 50 μM to 0.2 µM in H2O) of individual test or control compounds for 48 h at 27°C and >90% relative humidity; wells with no compound were also included. The numbers (percentages) of eggs from which first-stage larvae (L1s) hatched were counted using a light microscope (M80, Leica) at a 40-times magnification. With reference to positive-control compounds (i.e., monepantel and moxidectin), IC50 values of compounds were calculated.

Series [2] concerns H. contortus xL3s. Nature of the series: Cell lethality in xL3s (Sytox Green staining). In kind it is cell-based, Haemonchus contortus. As for the experimental part: Fluorescence staining was employed to assess the ability of UMW-868 to reduce the viability of H. contortus. The xL3s were dispensed in 96-well plates at a density of 300 xL3 per well, and incubated with compounds UMW-868 or A-3155, non-active analogs of UMW-868, at 50 μM at 38°C, 10% (v/v) CO2 and >90% relative humidity. After 90 h of incubation, H. contortus xL3s were stained with Sytox Green nucleic acid stain (Thermo Fisher Scientific) at the final concentration of 1 µM in LB* in the same 96-well plates and incubated for 1 h at 38°C and 10% (v/v) CO2 with >90% relative humidity. Following the incubation, the viability of larvae was evaluated by measuring the relative fluorescent units (RFU) of xL3s using an Omega FLUOstar microplate reader (BMG Labtech), with excitation and emission wavelengths set at 485 nm and 520 nm, respectively. The 96-well plates containing the stained larvae were returned to the incubator for further 78 h; after a total of 168 h of compound exposure, the stained larvae were examined under an inverted fluorescence microscope (DM IL, Leica) equipped with a green fluorescent protein filter (470/500/525 […]; Leica), and imaged using Leica Application Suite software (Leica).

Series [3] in a line: Cellular toxicity in HepG2 cells (crystal violet). It counts as cell-based, human. The settings on record: human, HepG2 human hepatoma cells; HepG2, 48 h; read-out: Cytotoxicity (48 h) CC50. As for the experimental part: (§1) The toxicities of compounds on cell and mitochondria were assessed to estimate their half-maximal cytotoxic concentrations (CC50) and half-maximal mitotoxic concentrations (MC50), respectively. HepG2 human hepatoma cells were seeded into wells of a 96-well plate at a density of 5.5 × 10^4 cells per well in 80 µl of Dulbecco’s modified eagle medium (DMEM; with GlutaMax™ cat. no. 10566016 or 4 mM L-glutamine cat. no. 11966025; Thermo Fisher Scientific), supplemented with 25 mM D-glucose (cytotoxicity) or D-galactose (mitotoxicity), 10% (v/v) inactivated foetal bovine serum (iFBS), 100 IU/ml of penicillin, 100 μg/ml of streptomycin and 0.25 μg/ml of amphotericin B (designated DMEM*). Cells were allowed to adhere for 16 h at 37°C and 5% (v/v) CO2 at > 90% relative humidity, then, incubated for 48 h with individual, serially-diluted compounds (two-fold serial dilution in DMEM*; […]) in a final volume of 100 µl. For the assessment of toxicity on mitochondria, cells were starved of serum (DMEM* without iFBS) for 4 h prior to the 48 h-incubation with compounds ([Swiss and Will, 2011]; [Kamalian et al., 2015]). Two positive control compounds, doxorubicin (cytotoxic control) and M-666 (mitotoxic control) were each added to three individual wells in each 96-well plate at a single concentration of 10 µM. DMEM* + 0.25% (v/v) DMSO was added to 12 wells in each plate as negative controls. Monepantel and moxidectin were also serially diluted — prepared in the same manner as test compounds — and used as (“non-toxic”) reference compounds. After 48 h of incubation, cell viability was determined by the crystal violet staining method ([Śliwka et al., 2016]). The absorbance (595 nm) of treated cells was normalised with reference to the negative control (100% viability). To determine the CC50 and MC50 values, compound concentrations were log10-transformed, baseline-corrected using a respective positive control (doxorubicin or M-666) and fitted using a variable slope four-parameter equation with a least squares (ordinary) fit model using GraphPad Prism software (v.9.1.2). Compounds and controls were tested in triplicate.

The subject of series [4] is HepG2 human hepatoma cells. Nature of the series: Cellular toxicity in HepG2 cells (crystal violet). It counts as cell-based. The note with it: HepG2 cells, concentrations of up to 100 µM. Here is the method:
as §1

Series [5] relates to mitochondria of HepG2 human hepatoma cells. Nature of the series: Mitochondrial toxicity in HepG2 cells (galactose medium). In kind it is cell-based. The settings on record: HepG2 mitochondria, concentrations of up to 100 µM. Here is the method:
as §1

The test system of series [6] is Caenorhabditis elegans young adults. The series can be described thus: In vitro activity on C. elegans. In kind it is cell-based.
Series [7] deals with A. ceylanicum in hamsters. Nature of the series: In vivo activity against A. ceylanicum in hamsters. Also noted: species or system Ancylostoma ceylanicum. As for the experimental part:
Candidate compound(s) were tested for their effect on other nematode species (He. polygyrus and A. ceylanicum) in infected rodents.
For He. polygyrus, four NMRI mice (3 weeks old; female) were infected orally with 88 He. polygyrus L3s, and immunosuppressed with 0.25 mg/ml dexamethasone (Sigma-Aldrich), in the drinking water, until 2 days prior to treatment ([Mes et al., 2007]). For A. ceylanicum, four Syrian golden hamsters (3 weeks old; male) were infected orally with 300 L3s without immunosuppression ([Tritten et al., 2012]). Fourteen days or 23 days after the infection, mice and hamsters, respectively, were treated orally with UMW-868 at dosages of 100 mg/kg bw (mice and hamsters). Four each of untreated mice and hamsters served as placebo controls. Six to 7 days post-treatment with the compound, all animals were euthanised by CO2 (hamsters being initially narcotised using isoflurane), and the intestine was dissected. The live adult worms were collected and counted to calculate the worm burden reductions and worm expulsion rates. The worm burden reduction was calculated using the mean number of live worms for the treated group and establishing the differences, in a percentage, with reference to the untreated control group.

Setting [8] is: hamster, A. ceylanicum, 100 mg/kg single oral dose.

As for `CCCc1ccc(-c2nc(-c3cccs3)no2)cc1` [UMW-868, 5-(4-propylphenyl)-3-(2-thienyl)-1,2,4-oxadiazole], the IC50 in series [1] was 6.2 µM; in series [2] (Haemonchus contortus, 90 h, read-out: IC50 (lethality, inducing cell death in xL3s)), 34.8 µM; in series [6] (Caenorhabditis elegans, read-out: IC50 (C. elegans motility)), 9.9 µM. Further, the “percentage of treated xL3s killed” value in series [2] (50 μM, 90 h) was found to be 100%. The “concentration at which cell death was detected in xL3s” value in series [2] (90 h of exposure) is more than 5 µM. The “dead cells detected microscopically in xL3s (Sytox Green)” value in series [2] (168 h of exposure) is “dead cells could be seen throughout the larvae”. Moreover, the CC50 at 48 h in series [3] is more than 50 µM. For the same compound, the “cytotoxicity (in words)” value in series [4] is “did not display any appreciable cytotoxicity”. In addition, the “mitotoxicity (in words)” value in series [5] is recorded as “did not display any appreciable cytotoxicity or mitotoxicity”. Besides, the “motility reduction of C. elegans” value in series [6] (10 µM, at 40 h) is 53.5%. In addition, in series [7] (setting [8]), the “Mean no. of worms (SD)” value was 4.8 (1.0). Besides, the “Reduction in infection intensity (%)” value in series [7] (setting [8]) amounted to 48%. The “acute toxicity and pathological changes in treated animals” value in series [7] (hamsters, single oral dose, post-mortem examination) is recorded as “neither evidence of acute toxicity”.

As usually defined, the IC50 is the concentration needed to halve the response being measured. The CC50 is the concentration that lowers cell viability or growth by half.
